Assay results: patent US20070140972A1, “Targeting compositions and preparation therof” (CTT CANSER TARGETING TECHNOLOGIES OY, priority 2003, published 2007)
Where a SMILES comes first, the peptide text is derived from it.

What was measured:
A2780 cells = test: Therapeutic efficacy (survival) in A2780 xenograft mice; assay type: in vivo, NMRI nude female mice; conditions: three injections in three-day intervals; sacrificed when tumour exceeded 1000 mm^3
Procedure: A2780 cells were injected subcutaneously into the posterior flanks of 50 NMRI nude female mice. The mice were randomly allocated into five treatment groups. […] In this study, the mice received three drug injections of 9 mg liposomal or free doxorubicin/kg in three-day intervals.
The mice were weighed and their tumour sizes were measured twice a week after treatment initiation. When tumour sizes exceeded 1000 mm^3 the mice were sacrificed.

[1] = Serum stability of CTT2 derivative; assay type: in vitro ADME; conditions: versus wild type CTT2 peptide
[2] = tested on: human ovarian carcinoma tumours (OV-90); test: Biodistribution of I-125 labelled 6F-Trp CTT2 peptide in OV-90 tumour mice (gamma counting); assay type: in vivo; conditions: 30 min and 180 min; clearance comparable to blood
Procedure: FIG. 8. The biodistribution study of I-125 labelled 6F-Trp CTT2 ([…][6-fluoro]WGFTLC)-peptide. The in vivo biodistribution of the ^125I-labeled peptide was assessed at two time points in NMRI/nude mice carrying human ovarian tumours on their lower back. Results are expressed as percentage of injected dose per 1 g tissue (% ID/1 g). All values are indicated as mean±SD of 5 mice.
The 6F-Trp CTT2 peptide was used in biodistribution study to evaluate its kinetic and tumour targeting properties. The study was performed in mice with established human ovarian carcinoma tumours (OV-90). The 6F-Trp CTT2 peptide was labelled with iodine-125. 40 μg of purified and labelled peptide (˜1 MBq) was injected into the tail vein of mice. 30 min and 180 min after peptide injection mice were sacrificed and blood and tissue samples were collected. The accumulated radioactivity was determined with gamma counter.

tumour cell migration = test: Inhibition of tumour cell migration; assay type: cell-based; conditions: versus wild type CTT2 peptide

serum stability in comparison to the wild type peptide [1] | accumulation of radioactivity in all other organs [2] | SMILES | survival status by five weeks after treatment initiation (A2780 cells) | ability to inhibit tumour cell migration in comparison to the wild type peptide (tumour cell migration)
– | – | COc1cccc2c1C(=O)c1c(O)c3c(c(O)c1C2=O)C[C@@](O)(C(=O)CO)C[C@@H]3O[C@H]1C[C@H](N)[C@H](O)[C@H](C)O1 [free doxorubicin, doxorubicin] | had been sacrificed | –
enhancement in serum stability | negligible | CC(C)C[C@@H]1NC(=O)[C@H]([C@@H](C)O)NC(=O)[C@H](Cc2ccccc2)NC(=O)CNC(=O)C(Cc2c[nH]c3cc(F)ccc23)NC(=O)[C@H](Cc2c[nH]cn2)NC(=O)[C@H]([C@@H](C)O)NC(=O)[C@H]([C@@H](C)O)NC(=O)[C@@H](NC(=O)CNC(=O)[C@H](Cc2c[nH]cn2)NC(=O)[C@H](Cc2ccc(O)cc2)NC(=O)[C@H](CC(N)=O)NC(=O)[C@H](CCC(=O)O)NC(=O)[C@H](CCCNC(=N)N)NC(=O)CN)CSSC[C@@H](C(N)=O)NC1=O (stereo partly drawn) [6F-Trp CTT2, GRENYHG-Cyclo(CTTH(d,l-6-Fluoro-W)GFTLC)-NH2] (HELM PEPTIDE1{G.R.E.N.Y.H.G.C.T.T.H.[O=C(C(Cc1c[nH]c2cc(F)ccc12)N[*:1])[*:2]].G.F.T.L.C.[am]}$PEPTIDE1,PEPTIDE1,8:R3-17:R3$$$V2.0; N-terminus assumed) | – | improved ability to inhibit tumour cell migration
